The subject of test [1] is DSP-4 induced noradrenaline depletion in mouse hippocampus. Description: Prevention of DSP-4 induced noradrenaline depletion in mouse hippocampus. The settings on record: 10 mg/kg, mouse hippocampus; in words. It counts as in vivo. Here is the method:
Neuroprotectant activity was evaluated by examining the prevention of DSP-4 induced noradrenaline depletion in mouse hippocampus as described in Yu, P. H., Davis, B. A., Fang, J. and Boulton, A. A. (1994), Neuroprotective effect of some monoamine oxidase-B inhibitors against DSP-4 induced noradrenaline depletion in the mouse hippocampus, J. Neurochem. 63: 1820-1828. Briefly, mice were injected (i.p.) with either 20% DMSO or potential neuroprotectants (10 mg/kg in 20% DMSO). One hour later they were injected with either water or DSP-4 (50 mg/kg in water). One week later the mice were killed and the brains removed and the hippocampus dissected out. The hippocampus was frozen and saved for estimation of noradrenaline and other aminergic neurotransmitters and their metabolites as in Sloley, B. D. and Goldberg J. I. (1991), Determination of γ-glutamyl conjugates of monoamines by means of high-performance liquid chromatography with electrochemical detection and application to gastropod tissues, J. Chromatog. 567: 49-56. The rest of the brain was frozen and retained for estimation of monoamine oxidase activities ex vivo as described earlier.

Test [2] relates to rat brain and liver monoamine oxidase-B. Nature of the test: Monoamine oxidase-B inhibiting activity ex vivo. It counts as in vivo. As for the experimental part: (§1) Radiolabelled β-phenylethylamine was employed as a substrate for monoamine oxidase-B. The compounds of interest were either injected intraperitoneally in DMSO or administered by gavage in water for various periods. The animals were killed by decapitation and the brains and livers immediately removed and frozen until assayed for monoamine oxidase-B activity. Tissues were homogenized and appropriately diluted in buffer prior to incubation. Incubations proceeded at 37° C. for 10 minutes. Incubation was terminated by the addition of acid and the radiolabelled product (phenylacetic acid) was extracted and quantified by liquid scintillation counting procedures. Incubations were done in triplicate and incubations containing phenelzine were included for comparison. The percent inhibition of monoamine oxidase-B activity compared to controls containing no drug was calculated.
Values are the mean ± the standard error based on (n) determinations.
Oral doses were administered as 75 μmol/kg on day 1, 75 μmol/kg on
day 2 and the animals were killed 5 hours later.

Test [3] has as its system NA, DA, 5-HT, 5-HIAA and DOPAC concentrations in rat hypothalamus. Nature of the test: Rat hypothalamus amine and amine metabolite concentrations. It counts as in vivo. The settings on record: 2 × 75 μmol/kg per os.
Test [4] relates to serotonin uptake in rat striatal prisms. Description: Serotonin (5-HT) uptake inhibition in rat striatal prisms in vitro. Particulars: 1 × 10^-4 M. It counts as biochemical. As for the experimental part:
CVT-P040 was evaluated for the ability to inhibit serotonin uptake in rat striatal prisms using the procedure of Martin, I. L., Baker, G. B. and Mitchell, P. R. (1978), The effect of viloxazine hydrochloride on the transport of noradrenaline, dopamine, 5-hydroxytryptamine and γ-aminobutyric acid in rat brain tissue Neuropharmacology 17: 421-423. Briefly, untreated rats were killed by guillotine decapitation, their brains removed, placed on an ice-cooled plate and the striatum was dissected out from the rest of the brain. The striatum was then chopped into 0.1×0.1×2 mm prisms using a Mcllwain tissue chopper and suspended in 5 volumes incubation medium containing 123 mM sodium chloride, 5 mM potassium chloride, 2.7 mM calcium chloride, 1.2 mM magnesium sulphate, 20 mM TRIS-HCl buffer (pH 7.5), 1 mM ascorbic acid, 10 mM glucose and 12.5 μM nialamide. The suspension was stored out of direct light and buried in ice. Aliquots (1 ml) of the tissue suspension were added to flasks containing 4 ml of incubation medium and this mixture was incubated for 15 min at 37° C. in a shaking water bath. Next, 10 µl of the appropriate chemical was added to each tube except the blanks and controls, followed by the addition of 10 μl of ^3 H-5-HT (final concentration 0.1 μM). The mixtures were incubated for 5 min at 37° C., then quickly filtered with a Millipore vacuum filter apparatus and rinsed two times with 5 ml warm (37° C.) incubation medium. Filters were transferred to scintillation vials and 10 ml Ready Safe scintillation cocktail was added to each. Radioactive content per tube was counted using a liquid scintillation spectrophotometer. Percent 5-HT uptake inhibition was calculated by applying the following equation: [formula]

For a further test, the system named is MAO-B. Nature of the test: MAO-B inhibition ex vivo in DSP-4 treated mice (brain). The settings on record: 10 mg/kg then DSP-4 50 mg/kg; saline control experiment. Also noted: species or system mouse. Here is the method:
as §1, with “Biochem. Pharmacol. 31: 1417-1424. Radiolabelled” for “Radiolabelled”
Neuroprotectant activity was evaluated by examining the prevention of DSP-4 induced noradrenaline depletion in mouse hippocampus as described in Yu, P. H., Davis, B. A., Fang, J. and Boulton, A. A. (1994), Neuroprotective effect of some monoamine oxidase-B inhibitors against DSP-4 induced noradrenaline depletion in the mouse hippocampus, J. Neurochem. 63: 1820-1828. Briefly, mice were injected (i.p.) with either 20% DMSO or potential neuroprotectants (10 mg/kg in 20% DMSO). […]

Test [5] relates to NA, DA, 5-HT, 5-HIAA and DOPAC concentrations in rat hypothalamus. Description: Rat hypothalamus amine and amine metabolite concentrations. It counts as in vivo. As for the experimental part:
The effects of various doses of CVT-P040 on the concentrations of hypothalamus amine neurotransmitters and their metabolites were evaluated by examining concentrations of noradrenaline (NA), dopamine (DA), 5-hydroxytryptamine (5-HT), 5-hydroxyindoleacetic acid (5-HIAA) and 3,4-dihydroxyphenylacetic acid (DOPAC) in rat hypothalami 5 hours after the injection of the drug. […] The brains were removed and divided in half. One half of the brain was frozen in isopentane on dry ice and retained for estimates of amino acid neurotransmitter concentrations. The other half had the hypothalamus removed and frozen on dry ice for later estimates of amines and their metabolites according to the method of Sloley, B. D. and Goldberg J. I. (1991), Determination of γ-glutamyl conjugates of monoamines by means of high-performance liquid chromatography with electrochemical detection and application to gastropod tissues, J. Chromatog. 567: 49-56. The rest of the brain was frozen on dry ice for ex vivo examination of MAO activity as described earlier.

Where [6] appears, read: brain, 150 μmol/kg, 5 hr, i.p. in 10% DMSO (Table 4, MAO-B by title).
Where [7] appears, read: brain, 2 × 75 μmol/kg per os (Table 4, MAO-B by title).
The mark [8] stands for this setting: liver, 2 × 75 μmol/kg per os (Table 4, MAO-B by title).

With `C#CCN(CCc1ccccc1)NC(C)=O` [CVT-P041, N^1 -propargyl-N^2 -acetylphenelzine], in test [1], the “protection against DSP-4 induced noradrenaline depletion / neuroprotective effect” value is listed as “did not exhibit a neuroprotective effect”. Moreover, the “% Inhibition of Monoamine Oxidase-B” value in test [2] (setting [6]) worked out at 77.6 ± 0.4%. For the same compound, the “% Inhibition of Monoamine Oxidase-B” value in test [2] (setting [7]) came to 73.6 ± 2.2%. In addition, the “% Inhibition of Monoamine Oxidase-B” value in test [2] (setting [8]) is 97.4 ± 0.2%. Further, in test [3], the 5-HT was 946 ng/g and the DA is reported as 553 ± 129 ng/g. Moreover, the “% Inhibition (serotonin uptake)” value in test [4] was found to be 22.2 ± 4.6%. For the same compound, the “MAO-B % Inhibition” value in the test on MAO-B is -3.7%. In test [5] (150 μmol/kg, 5 hr, ip), the 5-HIAA is 179 ± 6 ng/g, the 5-HT is 1100 ng/g, the DA is 461 ± 34 ng/g and the DOPAC was found to be 91 ± 6 ng/g. Also, in test [5] (150 μmol/kg, 5 hr, ip), the NA is reported as 2141 ± 86 ng/g. In addition, in test [5] (2 × 75 μmol/kg per os), the 5-HIAA stood at 228 ± 17 ng/g, the DOPAC worked out at 50 ng/g and the NA came to 1749 ng/g.
For `NNCCc1ccccc1` [phenelzine, 1-(2-phenyl) ethylhydrazine, reference compound], the “% Inhibition of Monoamine Oxidase-B” value in test [2] (brain, 5.75 μmol/kg, 5 hr, i.p. in 10% DMSO (Table 4, MAO-B by title)) was -2.7 ± 5.6%; in test [2] (setting [6]), 83.3 ± 2.3%; in test [2] (setting [7]) it was 76.4 ± 3.4%; in test [2] (liver, 5.75 μmol/kg, 5 hr, i.p. in 10% DMSO (Table 4, MAO-B by title)), 18.1 ± 5.8%; in test [2] (setting [8]), 95.6 ± 1.0%. Further, the 5-HT in test [3] was 1232 ± 87 ng/g; in test [5] (5.75 μmol/kg, 5 hr, ip), 755 ng/g; in test [5] (150 μmol/kg, 5 hr, ip) it was 1583 ± 95 ng/g. In addition, the DA turned out to be 607 ± 103 ng/g in test [3]; 544 ± 66 ng/g in test [5] (5.75 μmol/kg, 5 hr, ip); 385 ng/g in test [5] (150 μmol/kg, 5 hr, ip). In addition, the 5-HIAA is 334 ± 23 ng/g in test [5] (5.75 μmol/kg, 5 hr, ip); 131 ng/g in test [5] (150 μmol/kg, 5 hr, ip); 167 ng/g in test [5] (2 × 75 μmol/kg per os). The DOPAC in test [5] (5.75 μmol/kg, 5 hr, ip) came out at 89 ± 7 ng/g; in test [5] (150 μmol/kg, 5 hr, ip) it was 51 ± 4 ng/g; in test [5] (2 × 75 μmol/kg per os), 54 ± 4 ng/g. Further, the NA in test [5] (5.75 μmol/kg, 5 hr, ip) is given as 1468 ± 119 ng/g; in test [5] (150 μmol/kg, 5 hr, ip), 2113 ± 102 ng/g; in test [5] (2 × 75 μmol/kg per os), 2148 ± 171 ng/g.

(Values after patent US6060516A, “N^1 -propargylhydrazines, N^2 -propargylhydrazines and their analogs for the treatment of depression, anxiety and neurodegeneration” (CV Technologies, Inc., priority 1998, dated 2000).)
